The NIST ThermoML archive (doi:10.1016/j.jct.2012.06.012)
± gives the expanded uncertainty stated by the source.

Assay: xn = mol fraction of the nth substance listed
Conditions: Liquid, Vibrating tube method

`CCCCCCCCCC` [decane] + CCO gave a mass density (332.86 K, 16000 kPa, x2 = 0.0937) of 713.17 ± 0.43 kg/m3, a mass density (332.86 K, 16000 kPa, x2 = 0.9014) of 751.15 ± 0.37 kg/m3 and a mass density (332.86 K, 17000 kPa, x2 = 0.0937) of 714.01 ± 0.44 kg/m3. The mass density (332.86 K, 17000 kPa, x2 = 0.9014) was 752.07 ± 0.38 kg/m3, the mass density (332.86 K, 18000 kPa, x2 = 0.0937) was 714.82 ± 0.45 kg/m3 and the mass density (332.86 K, 18000 kPa, x2 = 0.9014) was 752.96 ± 0.4 kg/m3. For the same compound, the mass density (332.86 K, 19000 kPa, x2 = 0.0937) was 715.64 ± 0.47 kg/m3, the mass density (332.86 K, 19000 kPa, x2 = 0.9014) was 753.84 ± 0.41 kg/m3 and the mass density (332.86 K, 20000 kPa, x2 = 0.0937) was 716.42 ± 0.48 kg/m3. It also gave a mass density (332.86 K, 20000 kPa, x2 = 0.9014) of 754.71 ± 0.42 kg/m3, a mass density (332.87 K, 1000 kPa, x2 = 0.1011) of 699.31 ± 0.22 kg/m3 and a mass density (332.87 K, 1000 kPa, x2 = 0.4963) of 707.52 ± 0.22 kg/m3. The mass density (332.87 K, 2000 kPa, x2 = 0.1011) was 700.32 ± 0.24 kg/m3, the mass density (332.87 K, 2000 kPa, x2 = 0.4963) was 708.54 ± 0.23 kg/m3 and the mass density (332.87 K, 3000 kPa, x2 = 0.1011) was 701.31 ± 0.25 kg/m3. It also gave a mass density (332.87 K, 3000 kPa, x2 = 0.4963) of 709.55 ± 0.24 kg/m3, a mass density (332.87 K, 4000 kPa, x2 = 0.1011) of 702.29 ± 0.26 kg/m3 and a mass density (332.87 K, 4000 kPa, x2 = 0.4963) of 710.55 ± 0.26 kg/m3. It also gave a mass density (332.87 K, 5000 kPa, x2 = 0.1011) of 703.26 ± 0.28 kg/m3, a mass density (332.87 K, 5000 kPa, x2 = 0.4963) of 711.53 ± 0.27 kg/m3 and a mass density (332.87 K, 6000 kPa, x2 = 0.1011) of 704.21 ± 0.29 kg/m3. The mass density (332.87 K, 6000 kPa, x2 = 0.4963) was 712.5 ± 0.28 kg/m3, the mass density (332.87 K, 7000 kPa, x2 = 0.1011) was 705.15 ± 0.31 kg/m3 and the mass density (332.87 K, 7000 kPa, x2 = 0.4963) was 713.48 ± 0.3 kg/m3. It also gave a mass density (332.87 K, 8000 kPa, x2 = 0.1011) of 706.08 ± 0.32 kg/m3, a mass density (332.87 K, 8000 kPa, x2 = 0.4963) of 714.46 ± 0.31 kg/m3 and a mass density (332.87 K, 9000 kPa, x2 = 0.1011) of 707 ± 0.33 kg/m3. For the same compound, the mass density (332.87 K, 9000 kPa, x2 = 0.4963) was 715.43 ± 0.32 kg/m3, the mass density (332.87 K, 10000 kPa, x2 = 0.1011) was 707.91 ± 0.35 kg/m3 and the mass density (332.87 K, 10000 kPa, x2 = 0.4963) was 716.38 ± 0.34 kg/m3. For the same compound, the mass density (332.87 K, 11000 kPa, x2 = 0.1011) was 708.83 ± 0.36 kg/m3, the mass density (332.87 K, 11000 kPa, x2 = 0.4963) was 717.33 ± 0.35 kg/m3 and the mass density (332.87 K, 12000 kPa, x2 = 0.1011) was 709.73 ± 0.37 kg/m3. For the same compound, the mass density (332.87 K, 12000 kPa, x2 = 0.4963) was 718.27 ± 0.36 kg/m3, the mass density (332.87 K, 13000 kPa, x2 = 0.1011) was 710.62 ± 0.39 kg/m3 and the mass density (332.87 K, 13000 kPa, x2 = 0.4963) was 719.21 ± 0.37 kg/m3. It also gave a mass density (332.87 K, 14000 kPa, x2 = 0.1011) of 711.51 ± 0.4 kg/m3, a mass density (332.87 K, 14000 kPa, x2 = 0.4963) of 720.13 ± 0.39 kg/m3 and a mass density (332.87 K, 15000 kPa, x2 = 0.1011) of 712.38 ± 0.41 kg/m3. The mass density (332.87 K, 15000 kPa, x2 = 0.4963) was 721.03 ± 0.4 kg/m3, the mass density (332.87 K, 16000 kPa, x2 = 0.1011) was 713.23 ± 0.43 kg/m3 and the mass density (332.87 K, 16000 kPa, x2 = 0.4963) was 721.92 ± 0.41 kg/m3. The mass density (332.87 K, 17000 kPa, x2 = 0.1011) was 714.07 ± 0.44 kg/m3, the mass density (332.87 K, 17000 kPa, x2 = 0.4963) was 722.8 ± 0.43 kg/m3 and the mass density (332.87 K, 18000 kPa, x2 = 0.1011) was 714.88 ± 0.45 kg/m3. The mass density (332.87 K, 18000 kPa, x2 = 0.4963) was 723.66 ± 0.44 kg/m3, the mass density (332.87 K, 19000 kPa, x2 = 0.1011) was 715.69 ± 0.47 kg/m3 and the mass density (332.87 K, 19000 kPa, x2 = 0.4963) was 724.5 ± 0.45 kg/m3. For the same compound, the mass density (332.87 K, 20000 kPa, x2 = 0.1011) was 716.47 ± 0.48 kg/m3, the mass density (332.87 K, 20000 kPa, x2 = 0.4963) was 725.32 ± 0.46 kg/m3 and the mass density (332.91 K, 1000 kPa, x2 = 0.7526) was 720.88 ± 0.21 kg/m3. It also gave a mass density (332.91 K, 2000 kPa, x2 = 0.7526) of 721.93 ± 0.22 kg/m3, a mass density (332.91 K, 3000 kPa, x2 = 0.7526) of 722.96 ± 0.23 kg/m3 and a mass density (332.91 K, 4000 kPa, x2 = 0.7526) of 723.98 ± 0.25 kg/m3. For the same compound, the mass density (332.91 K, 5000 kPa, x2 = 0.7526) was 725 ± 0.26 kg/m3, the mass density (332.91 K, 6000 kPa, x2 = 0.7526) was 726.01 ± 0.27 kg/m3 and the mass density (332.91 K, 7000 kPa, x2 = 0.7526) was 727.02 ± 0.28 kg/m3. For the same compound, the mass density (332.91 K, 8000 kPa, x2 = 0.7526) was 728.03 ± 0.3 kg/m3, the mass density (332.91 K, 9000 kPa, x2 = 0.7526) was 729.03 ± 0.31 kg/m3 and the mass density (332.91 K, 10000 kPa, x2 = 0.7526) was 729.99 ± 0.32 kg/m3. For the same compound, the mass density (332.91 K, 11000 kPa, x2 = 0.7526) was 730.98 ± 0.33 kg/m3, the mass density (332.91 K, 12000 kPa, x2 = 0.7526) was 731.94 ± 0.35 kg/m3 and the mass density (332.91 K, 13000 kPa, x2 = 0.7526) was 732.91 ± 0.36 kg/m3. For the same compound, the mass density (332.91 K, 14000 kPa, x2 = 0.7526) was 733.85 ± 0.37 kg/m3, the mass density (332.91 K, 15000 kPa, x2 = 0.7526) was 734.78 ± 0.38 kg/m3 and the mass density (332.91 K, 16000 kPa, x2 = 0.7526) was 735.69 ± 0.39 kg/m3. For the same compound, the mass density (332.91 K, 17000 kPa, x2 = 0.7526) was 736.6 ± 0.41 kg/m3, the mass density (332.91 K, 18000 kPa, x2 = 0.7526) was 737.48 ± 0.42 kg/m3 and the mass density (332.91 K, 19000 kPa, x2 = 0.7526) was 738.35 ± 0.43 kg/m3. The mass density (332.91 K, 20000 kPa, x2 = 0.7526) was 739.19 ± 0.44 kg/m3, the mass density (332.97 K, 1000 kPa, x2 = 0.2507) was 701.45 ± 0.22 kg/m3 and the mass density (332.97 K, 2000 kPa, x2 = 0.2507) was 702.46 ± 0.23 kg/m3. For the same compound, the mass density (332.97 K, 3000 kPa, x2 = 0.2507) was 703.46 ± 0.25 kg/m3, the mass density (332.97 K, 4000 kPa, x2 = 0.2507) was 704.44 ± 0.26 kg/m3 and the mass density (332.97 K, 5000 kPa, x2 = 0.2507) was 705.41 ± 0.28 kg/m3. For the same compound, the mass density (332.97 K, 6000 kPa, x2 = 0.2507) was 706.36 ± 0.29 kg/m3, the mass density (332.97 K, 7000 kPa, x2 = 0.2507) was 707.31 ± 0.3 kg/m3 and the mass density (332.97 K, 8000 kPa, x2 = 0.2507) was 708.26 ± 0.32 kg/m3. For the same compound, the mass density (332.97 K, 9000 kPa, x2 = 0.2507) was 709.21 ± 0.33 kg/m3, the mass density (332.97 K, 10000 kPa, x2 = 0.2507) was 710.12 ± 0.34 kg/m3 and the mass density (332.97 K, 11000 kPa, x2 = 0.2507) was 711.06 ± 0.36 kg/m3. The mass density (332.97 K, 12000 kPa, x2 = 0.2507) was 711.97 ± 0.37 kg/m3, the mass density (332.97 K, 13000 kPa, x2 = 0.2507) was 712.88 ± 0.38 kg/m3 and the mass density (332.97 K, 14000 kPa, x2 = 0.2507) was 713.78 ± 0.4 kg/m3. It also gave a mass density (332.97 K, 15000 kPa, x2 = 0.2507) of 714.65 ± 0.41 kg/m3, a mass density (332.97 K, 16000 kPa, x2 = 0.2507) of 715.53 ± 0.42 kg/m3 and a mass density (332.97 K, 17000 kPa, x2 = 0.2507) of 716.38 ± 0.44 kg/m3. For the same compound, the mass density (332.97 K, 18000 kPa, x2 = 0.2507) was 717.21 ± 0.45 kg/m3, the mass density (332.97 K, 19000 kPa, x2 = 0.2507) was 718.03 ± 0.46 kg/m3 and the mass density (332.97 K, 20000 kPa, x2 = 0.2507) was 718.82 ± 0.47 kg/m3.
